Test results taken from patent US8785399B2, “Antibacterial peptides” (Spiderbiotech S.R.A., priority 2008, dated 2014).
Converted amounts (≈) assume the structure as drawn. Positions of bridges follow the written chain, without caps; N, C: chain ends. Non-standard residues stand in square brackets, D forms with d. Residues, ends and D or L forms follow the SMILES beside them. Chains are numbered I, II in the order given. Aoc = NCCCCCCCC(=O)O; βAla = NCCC(=O)O

Tests used:
E. coli ATCC 25922 = test: MIC by broth microdilution, E. coli reference strain; type: cell-based, Escherichia coli
Method: (§1) Determination of MIC. MICs were determined in MHB by the broth microdilution methodology, according to CLSI procedure (formerly NCCLS, Ref. 11) by using final bacterial inocula of 1-5×10^5 CFU/mL. Assays were performed in sterile 96-well microtiter plates with round bottom wells (Corning Costar). Plates were incubated at 37° C. and read after 20-24 h. MIC was defined as the lowest drug concentration causing complete suppression of visible bacterial growth. All compounds were dissolved in (5% v/v DMSO).
All natural aminoacids have been divided into three groups based on their chemical-physical properties. A total amount of 27 minilibraries, each one containing six peptide in equimolar amounts, were obtained and assayed against E. coli ATCC 25922 as reference strain. MIC (Minimum Inhibitory Concentration) is defined as the lowest concentration inhibiting 100% of visible growth.

[1] = tested on: Pseudomonas aeruginosa ATCC 27853; test: MIC by broth microdilution, P. aeruginosa reference strain; type: cell-based
Method: as §1
(§2) These peptides were synthesized individually, in order to assay the activity of each sequence.

[2] = tested on: Klebsiella pneumoniae ATCC 10031; test: MIC by broth microdilution, K. pneumoniae reference strain; type: cell-based
Method: as §1, §2

Acinetobacter baumannii = type: cell-based
Method: as §1
(§3) These compounds were tested against a large panel of Gram-negative clinical isolates and the relative MIC values were reported in Table 5 (parts 1-3)

Acinetobacter iwoffi = type: cell-based
Method: as §1, §3

Enterobacter cloacae = type: cell-based
Method: as §1, §3

Escherichia coli = type: cell-based
Method: as §1, §3

Klebsiella oxytoca = type: cell-based
Method: as §1, §3

Klebsiella pneumoniae = type: cell-based
Method: as §1, §3

Proteus mirabilis = type: cell-based
Method: as §1, §3

Pseudomonas aeruginosa = type: cell-based
Method: as §1, §3

Serratia marcescens = type: cell-based
Method: as §1, §3

[3] = tested on: Stenotrophomonas maltophilia; type: cell-based
Method: as §1, §3

Shigella = test: MIC vs clinical isolates, Shigella; type: cell-based; conditions: Shigella strain ND024108
Method: as §1, §3

E. coli EC47 = type: cell-based, Escherichia coli
Method: Test and reference compounds, ID24 and colistin sodium methanesufonate (CMS) respectively, were dissolved in 0.1 M phosphate-buffered saline pH 6.9, at the required drug concentrations. Solutions were made just before administration, and stored at 4° C. until the end of scheduled treatments, ID24 MIC value on E. coli EC47 strain is 2 ug/mL [MIC was determined by the broth microdilution method in Muller Hinton medium (NCCLS guidelines), using bacterial inoculum of approximately 10^5 CFU/mL].

[4] = In vitro cytotoxicity, MTT dye reduction assay, HeLa; type: cell-based; conditions: human, HeLa cells (human epithelial carcinoma)
Method: (§4) HeLa (Human epithelial carcinoma cell line), HepG2 (Human hepatocellular liver carcinoma cell line) and HaCat (human keratinocyte) were grown to confluence and then plated at 20,000, 12,500 and 30,000 cells per well (the optimal cell count for each cell line has been previously determined). After 24 hours, ID24 in DMEM without FBS was added at concentration ranging from 800 and 100 ug/ml. As positive controls 100 uL of cells washed with medium without serum that represent 100% viability and, as negative, 100 uL medium without serum were also added. After 24 hours of incubation at 37° C. in a 5% v/v CO2 atmosphere, 10 ul MTT Reagent [3-(4,5-dimethylthiazol-2-yl)-2,5-diphenyl […] bromide, final concentration 0.5 mg/mL) was added to each well and incubated for 2 to 4 hours. Solubilization of formazan, formed by metabolic reduction of MTT, was obtained using the stop mix solution (10% w/v sodium dodecyl sulphate, 45% v/v dimethyl formamide, adjusted to pH 4.5 with glacial acetic acid). The plates were read in a microplate spectrophotometer. (Biorad, Benchmark plus). Cultures exposed to ID24 or exposed to the medium alone were measured spectrophotometrically at dual wave-length (565-650 nm). The experiment was carried out in three replicates.

[5] = In vitro cytotoxicity, MTT dye reduction assay, HepG2; type: cell-based; conditions: human, HepG2 cells (human hepatocellular liver carcinoma)
Method: as §4

[6] = In vitro cytotoxicity, MTT dye reduction assay, HaCat; type: cell-based; conditions: human, HaCat cells (human keratinocytes)
Method: as §4

[7] = tested on: P. aeruginosa ATCC 27853 24-hours biofilm; type: cell-based, Pseudomonas aeruginosa; conditions: ATCC 27853, 4 h
Method: An exponential phase inoculum of Pseudomonas aeruginosa ATCC 27853 of approximately 1×10^7 CFU/mL was poured into a reagent reservoir of Innovotech plates for MBEC™ High-throughput assay (Innovotech Inc., Edmonton, Canada). 22 mL of inoculum were added to the trough and the peg lid was placed onto. The device was placed on the shaking incubator at 80 rpm in a humidified box at 37° C.
After 24 hours of incubation, the pegs were rinsed into a plate containing 200 uL of physiological solution to remove loosely adherent planktonic cells from the biofilm and then were put in a microplate containing 200 uL of different antibiotic solutions serially diluted in TSB.
Following 4 hours of contact and incubation at 37° C. on the shaking incubator, the peg lid was removed from the trough and submersed in a rinse plate for 2 minutes.
Then a new microtitre with saline solution containing the sample pegs was put in the tray of the ultrasonic cleaner and sonicated for 30 minutes to disrupt biofilm from the surface of the 96 pegs.
Duplicate 0.01 or 0.005 mL aliquots of ten fold serial dilution of each well, were spread on MHA plate and colonies were read for viable cell counting after 24 hours of incubation.

In vivo acute toxicity = test: In vivo acute toxicity; set-up: species or system CD1 mice; conditions: for symptoms and behavioural alterations (Irwin Test): female CD1 mice
Method: 9-10 weeks female CD1 mice (Charles River Lab. Italia s.r.l. Via Indipendenza, 11-23885 Calco (LC), Italy), weighing on average 28.23 g on the day of experiment were used. Mice were housed for 3 days in a temperature and humidity controlled room before starting experiment, and were fed with standard laboratory chow and water ad libitum.
ID24 was dissolved and sonicated in 0.9% w/v NaCl sterile solution (Sigma-Aldrich) for human administration at the dose concentrations 20 and 40 mg/kg. Compound preparation was conducted just before administration.
Two doses of ID24 were administered with a single intraperitoneal injection to mice: 20 mg/kg and 40 mg/kg. Five animals were treated with each dose of antibiotic. Adverse symptoms were monitored daily for 7 days after injection.
Survivals and clinical/behavioural signs were recorded daily for 14 days.
Main behavioural parameters and clinical signs provided by Irwin Test (Ref. 13).

[8] = tested on: Staphylococcus aureus ATCC 25923
Method: as §1, §2

whole blood = type: cell-based
Method: Whole blood was collected in a sterile tube with a 4% w/v sodium citrate solution (in a 1:10 ratio sodium citrate:whole blood) and conserved in ice. Serial dilutions of ID24 (1 mg/mL to 62.5 ug/mL) were added to whole blood in a ratio 1:1 or 1:10. The haemolytic potential was expressed relative to saponine, added in the same ratio, considered as 100% haemolysis. The negative control was whole blood in physiologic solution, which gave minimal lysis. 100 uL aliquots of each suspension were added in sterile 96-well microtiter plates (Nunc) in triplicate. The plates were incubated at 37° C. for 30 minutes.
Subsequently, the suspension were pelletted by centrifugation at 1000 g for 10 minutes at 4° C. One hundred microliters of supernatant from each well was transferred accordingly to a new 96-well microtiter plate, and the amount of haemoglobin released into the supernatant was determined by reading the absorbance at 560 nm.
In Table 8, haemolysis percentages of different amounts of ID24 in a 1:1 ratio with whole blood are listed, while in Table 9 haemolysis percentages of different amounts of ID24 in a 1:10 ratio with whole blood are reported. The amount of haemoglobin released into the supernatant was determined by reading the absorbance at 560 nm.

[9] = IP administration, up to the highest dose of 40 mg/kg

Compound | MIC (ug/mL) E. coli (E. coli ATCC 25922; Table 4) | MIC (ug/mL) P. aeruginosa ([1]; Table 4) | MIC Range (Acinetobacter baumannii) | MIC (Acinetobacter iwoffi) | MIC Range (Enterobacter cloacae) | MIC Range (Escherichia coli) | MIC Range (Klebsiella oxytoca) | MIC Range (Klebsiella pneumoniae) | MIC (Proteus mirabilis) | MIC Range (Proteus mirabilis) | MIC Range (Pseudomonas aeruginosa) | MIC (Serratia marcescens) | MIC Range [3] | MIC (Shigella) | also measured
CC[C@H](C)[C@H](NC(=O)[C@H](CCCCN)NC(=O)[C@H](CCCCN)NC(=O)[C@@H](N)Cc1c[nH]c2ccccc12)C(=O)N[C@@H](CCCNC(=N)N)C(=O)N[C@H](C(=O)N[C@@H](CCCNC(=N)N)C(=O)N[C@@H](CC(C)C)C(=O)N[C@@H](CO)C(=O)N[C@@H](C)C(=O)NCCCC[C@H](NC(=O)[C@H](C)NC(=O)[C@H](CO)NC(=O)[C@H](CC(C)C)NC(=O)[C@H](CCCNC(=N)N)NC(=O)[C@@H](NC(=O)[C@H](CCCNC(=N)N)NC(=O)[C@@H](NC(=O)[C@H](CCCCN)NC(=O)[C@H](CCCCN)NC(=O)[C@@H](N)Cc1c[nH]c2ccccc12)[C@@H](C)CC)C(C)C)C(=O)NCCC(N)=O)C(C)C [ID18, (H-W-KKIRVRLSA)2-Lys-β-Ala-NH2] (I: H-WKKIRVRLSAK[βAla]-NH2 / II: H-WKKIRVRLSA; amide I:11-II:C) | 4 µg/mL (≈ 1.49 µM) | 32 µg/mL (≈ 11.9 µM) | 8 to 16 µg/mL | 16 µg/mL (≈ 5.94 µM) | 4 to 32 µg/mL | 2 to 32 µg/mL | 32 µg/mL (≈ 11.9 µM) | 4 to 16 µg/mL | >128 µg/mL | >128 µg/mL | 8 to 16 µg/mL | >128 µg/mL | 8 to 32 µg/mL | 4 µg/mL (≈ 1.49 µM) | MIC (ug/mL) K. pneumoniae ([2]; Table 4): 32 µg/mL (≈ 11.9 µM); MIC (Klebsiella oxytoca): 32 µg/mL (≈ 11.9 µM)
CC[C@H](C)[C@H](NC(=O)[C@H](CCCCN)NC(=O)[C@H](CCCCN)NC(=O)[C@@H](N)Cc1c[nH]c2ccccc12)C(=O)N[C@@H](CCCNC(=N)N)C(=O)N[C@H](C(=O)N[C@@H](CCCNC(=N)N)C(=O)N[C@@H](CC(C)C)C(=O)N[C@@H](CO)C(=O)N[C@@H](C)C(=O)NCCCC[C@H](NC(=O)[C@H](C)NC(=O)[C@H](CO)NC(=O)[C@H](CC(C)C)NC(=O)[C@H](CCCNC(=N)N)NC(=O)[C@@H](NC(=O)[C@H](CCCNC(=N)N)NC(=O)[C@@H](NC(=O)[C@H](CCCCN)NC(=O)[C@H](CCCCN)NC(=O)[C@@H](N)Cc1c[nH]c2ccccc12)[C@@H](C)CC)C(C)C)C(=O)NCCCCCCCC(N)=O)C(C)C [ID24, (H-W-KKIRVRLSA)2-Lys-8-Aoa-NH2] (I: H-WKKIRVRLSAK[Aoc]-NH2 / II: H-WKKIRVRLSA; amide I:11-II:C) | 4 µg/mL (≈ 1.45 µM) | 32 µg/mL (≈ 11.6 µM) | 8 to 16 µg/mL | 32 µg/mL (≈ 11.6 µM) | 4 to 16 µg/mL | 4 to 32 µg/mL | 16 to 32 µg/mL | 4 to 16 µg/mL | >128 µg/mL | >128 µg/mL | 8 to 16 µg/mL | >128 µg/mL | 8 to 32 µg/mL | 4 µg/mL (≈ 1.45 µM) | MIC value on E. coli EC47 strain (E. coli EC47): 2 µg/mL (≈ 0.724 µM); CC50 at 24 h [4]: 156 nM; CC50 at 24 h ([4]; HeLa, 24 hours incubation, MTT, read-out: CC50 ID24): 430 µg/mL; CC50 at 24 h [5]: 78 nM; CC50 at 24 h ([5]; HepG2, 24 hours incubation, MTT, read-out: CC50 ID24): 215 µg/mL; CC50 at 24 h [6]: 160 nM; CC50 at 24 h ([6]; HaCat, 24 hours incubation, MTT, read-out: CC50 ID24): 442 µg/mL; percentage of inhibition of bacteria biofilm [7]: 88.7-99.9%; symptoms and behavioural alterations (Irwin Test) (In vivo acute toxicity; 20 mg/kg single intraperitoneal injection): no behavioural alterations; symptoms and behavioural alterations (Irwin Test) (In vivo acute toxicity; 40 mg/kg single intraperitoneal injection): no behavioural alterations; adverse symptoms (In vivo acute toxicity; [9]): No adverse symptoms; deaths (In vivo acute toxicity; [9]): no deaths
H-YKKIRVRLSA-OH [ID7, H-Y-KKIRVRLSA-OH] | – | – | – | – | – | – | – | – | – | – | – | – | – | – | MIC (ug/mL) E. coli (E. coli ATCC 25922; ATCC 25922): 256 µg/mL; MIC (ug/mL) P. aeruginosa ([1]; ATCC 27853): 256 µg/mL; MIC (ug/mL) K. pneumoniae ([2]; ATCC 10031): >512 µg/mL; MIC (ug/mL) S. aureus [8]: >512 µg/mL
saponine | – | – | – | – | – | – | – | – | – | – | – | – | – | – | Haemolysis % (whole blood): 100%; Haemolysis, % (whole blood): 100%
